Results from US20070053985A1, “Coenzyme Q10-containing fine particle with excellent dispersibility” (KANEKA CORPORATION, priority 2005, published 2007).

Assays:
[1] = Adhesion of particles to the wall of a glass sample bottle on shaking; format: physicochemical; details: 500 mg in a 10-mL glass sample bottle, shaken
Procedure: Fine particles as obtained in Example 4 (500 mg) was placed in a 10-mL glass sample bottle, and then shaken.
Reduced coenzyme Q10 crystals as obtained in Production Example 1 (500 mg) was placed in a 10-mL glass sample bottle, and then shaken in the same manner as Example 8.

[2] = Dispersibility in water, mixture stirred violently; format: physicochemical; details: 5 mg added into 100 mL of water, stirring violently
Procedure: Oxidized coenzyme Q10 crystals (5 mg) or reduced coenzyme Q10 crystals (5 mg) as obtained in the Production Example 1 was added into 100 mL of water, and each mixture was then stirring violently. In the both mixtures, one part of fine particles adhered to the wall of vessel, and another part thereof formed lumps of particles floated on the water surface.

Row | dispersibility in water [2] | Structure (SMILES) | adhesion to the wall of bottle [1]
1 | the particles were not dispersed easily | COc1c(O)c(C)c(C/C=C(\C)CC/C=C(\C)CC/C=C(\C)CC/C=C(\C)CC/C=C(\C)CC/C=C(\C)CC/C=C(\C)CC/C=C(\C)CC/C=C(\C)CCC=C(C)C)c(O)c1OC [reduced coenzyme Q10 crystals, reduced coenzyme Q10] | most of the crystals were adhered to the wall
2 | the particles were not dispersed easily | COC1=C(OC)C(=O)C(C/C=C(\C)CC/C=C(\C)CC/C=C(\C)CC/C=C(\C)CC/C=C(\C)CC/C=C(\C)CC/C=C(\C)CC/C=C(\C)CC/C=C(\C)CCC=C(C)C)=C(C)C1=O [Oxidized coenzyme Q10 crystals, Oxidized coenzyme Q10] | –
